Results: US20260078120A1, “SUBSTITUTED PYRIDOPYRIMIDINONES” (MIRATI THERAPEUTICS, INC., priority 2022, published 2026)

Assays:
[1] = tested on: T47D (PI3Kα H1047R mutant) cells; test: CellTiter-Glo 2.0 luminescent cell viability assay, 72 hours, T47D cells; assay type: cell-based; conditions: Homo sapiens, T47D, 72 h, T47D (PI3Kα H1047R mutant) cells, CellTiter-Glo, approximately 72 hours; read-out: T47D (H1047R mutant) Viability IC50
Outline: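 Cells seeded at 1000 per well overnight were dosed with a 10-concentration, 1:4 series starting at 10 µM and incubated ~72 h at 37° C. Viability was read by CellTiter-Glo 2.0 luminescence after 30 min at room temperature. IC50 came from four-parameter fits of percent vehicle control.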

[2] = tested on: SKBR3 (PI3Kα wild type) cells; test: CellTiter-Glo 2.0 luminescent cell viability assay, 72 hours, SKBR3 cells; assay type: cell-based; conditions: Homo sapiens, SK-BR-3, 72 h, SKBR3 (PI3Kα wild type) cells, CellTiter-Glo, approximately 72 hours; read-out: SKBR3 (WT) Viability IC50
Outline: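 Viability measured via CTG luminescence following roughly 72 hours of compound exposure at 37° C. Dosing used a 10 um starting concentration diluted 1:4 over 10 points; percent-of-vehicle data fitted with a variable-slope four-parameter model for IC50.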

| Compound | IC50 [1] [µM] | IC50 [2] [µM] |
| --- | --- | --- |
| Cc1cc([C@@H](C)Nc2ccc(Cl)nc2C(=O)O)c2nc(N3CC4C(C3)C4(F)F)c(C#N)c(=O)n2c1 (stereo partly drawn) [Example 11-143, 6-chloro-3-(((1R)-1-(3-cyano-2-(6,6-difluoro-3-azabicyclo[3.1.0]hexan-3-yl)-7-methyl-4-oxo-4H-pyrido[1,2-a]pyrimidin-9-yl)ethyl)amino)picolinic acid] | 0.795 | > 10 |
| Cc1cc([C@@H](C)Nc2ccccc2C(=O)O)c2nc(N3CCN(c4cccc(C#N)c4)C[C@H]3C)c(C#N)c(=O)n2c1 [Example 11-84, 2-(((R)-1-(3-cyano-2-((R)-4-(3-cyanophenyl)-2-methylpiperazin-1-yl)-7-methyl-4-oxo-4H-pyrido[1,2-a]pyrimidin-9-yl)ethyl)amino)benzoic acid] | 0.139 | 0.952 |
| Cc1cc([C@@H](C)Nc2ccccc2C(=O)O)c2nc(N3CCN(c4cccc(C#N)c4)C[C@H]3C)c(C)c(=O)n2c1 [Example 11-87, 2-(((R)-1-(2-((R)-4-(3-cyanophenyl)-2-methylpiperazin-1-yl)-3,7-dimethyl-4-oxo-4H-pyrido[1,2-a]pyrimidin-9-yl)ethyl)amino)benzoic acid] | 0.156 | > 10 |
| CO[C@H]1CN(c2nc3c([C@@H](C)Nc4ccccc4C(=O)O)cc(C)cn3c(=O)c2C)CC1(F)F [Example 11-118, 2-(((R)-1-(2-((S)-3,3-difluoro-4-methoxypyrrolidin-1-yl)-3,7-dimethyl-4-oxo-4H-pyrido[1,2-a]pyrimidin-9-yl)ethyl)amino)benzoic acid] | 0.233 | > 10 |
| Cc1cc([C@@H](C)Nc2ccccc2C(=O)O)c2nc(NCC3COC3)c(C#N)c(=O)n2c1 [Example 11-204, (R)-2-((1-(3-cyano-7-methyl-2-((oxetan-3-ylmethyl)amino)-4-oxo-4H-pyrido[1,2-a]pyrimidin-9-yl)ethyl)amino)benzoic acid] | 1.6 | > 10 |
| CCOCC1CCN(c2nc3c([C@@H](C)Nc4ccccc4C(=O)O)cc(C)cn3c(=O)c2C)CC1 [Example 10-4, (R)-2-((1-(2-(4-(ethoxymethyl)piperidin-1-yl)-3,7-dimethyl-4-oxo-4H-pyrido[1,2-a]pyrimidin-9-yl)ethyl)amino)benzoic acid] | 0.0123 | > 10 |
| Cc1cc([C@@H](C)Nc2ccccc2C(=O)O)c2nc(N3CC[C@@H]3CF)c(C)c(=O)n2c1 [Example 11-95, 2-(((R)-1-(2-((R)-2-(fluoromethyl)azetidin-1-yl)-3,7-dimethyl-4-oxo-4H-pyrido[1,2-a]pyrimidin-9-yl)ethyl)amino)benzoic acid] | 0.198 | > 10 |
| Cc1cc([C@@H](C)Nc2ccccc2C(=O)O)c2nc(N[C@@H](C)c3cccnc3)c(C#N)c(=O)n2c1 [Example 11-52, 2-(((R)-1-(3-cyano-7-methyl-4-oxo-2-(((S)-1-(pyridin-3-yl)ethyl)amino)-4H-pyrido[1,2-a]pyrimidin-9-yl)ethyl)amino)benzoic acid] | 6.64 | > 10 |
| Cc1cc([C@@H](C)Nc2ccc(Cl)nc2C(=O)O)c2nc(NCC3CC3)c(C#N)c(=O)n2c1 [Example 11-206, (R)-6-chloro-3-((1-(3-cyano-2-((cyclopropylmethyl)amino)-7-methyl-4-oxo-4H-pyrido[1,2-a]pyrimidin-9-yl)ethyl)amino)picolinic acid] | 0.132 | > 10 |

Second part, the compound after the results:

| IC50 [1] [µM] | IC50 [2] [µM] | Compound |
| --- | --- | --- |
| > 10 | > 10 | Cc1cc([C@@H](C)Nc2ccccc2C(=O)O)c2nc(N3CCn4c(nnc4C(F)(F)F)C3)c(C#N)c(=O)n2c1 [Example 11-216, (R)-2-((1-(3-cyano-7-methyl-4-oxo-2-(3-(trifluoromethyl)-5,6-dihydro-[1,2,4]triazolo[4,3-a]pyrazin-7(8H)-yl)-4H-pyrido[1,2-a]pyrimidin-9-yl)ethyl)amino)benzoic acid] |
| > 10 | > 10 | Cc1cc(C(C)Nc2ccccc2C(=O)O)c2nc(-c3cccc(C#N)c3)cc(=O)n2c1 (stereo not drawn) [Example 11-398, 2-((1-(2-(3-cyanophenyl)-7-methyl-4-oxo-4H-pyrido[1,2-a]pyrimidin-9-yl)ethyl)amino)benzoic acid] |
| 0.139 | > 10 | Cc1cc([C@@H](C)Nc2ccc(Cl)nc2C(=O)O)c2nc(N3CCC(F)(F)CC3)c(C)c(=O)n2c1 [Example 11-298, (R)-6-chloro-3-((1-(2-(4,4-difluoropiperidin-1-yl)-3,7-dimethyl-4-oxo-4H-pyrido[1,2-a]pyrimidin-9-yl)ethyl)amino)picolinic acid] |
| 3.97 | > 10 | Cc1cc([C@@H](C)Nc2ccccc2C(=O)O)c2nc(N3CCC(N(C)C)CC3)c(C)c(=O)n2c1 [Example 11-311, (R)-2-((1-(2-(4-(dimethylamino)piperidin-1-yl)-3,7-dimethyl-4-oxo-4H-pyrido[1,2-a]pyrimidin-9-yl)ethyl)amino)benzoic acid] |
| > 10 | > 10 | Cc1cc([C@@H](C)Nc2ccccc2C(=O)O)c2nc(Cl)c(C)c(=O)n2c1 [Example 11-242, (R)-2-((1-(2-chloro-3,7-dimethyl-4-oxo-4H-pyrido[1,2-a]pyrimidin-9-yl)ethyl)amino)benzoic acid] |
| 0.492 | > 10 | Cc1cc([C@@H](C)Nc2ccccc2C(=O)O)c2nc(C#Cc3ccc(C#N)cc3)c(C)c(=O)n2c1 [Example 11-253, (R)-2-((1-(2-((4-cyanophenyl)ethynyl)-3,7-dimethyl-4-oxo-4H-pyrido[1,2-a]pyrimidin-9-yl)ethyl)amino)benzoic acid] |
| 1.18 | > 10 | Cc1cc([C@@H](C)Nc2ccccc2C(=O)O)c2nc(N3CCN(c4cnn(C)c4)CC3)c(C#N)c(=O)n2c1 [Example 11-264, (R)-2-((1-(3-cyano-7-methyl-2-(4-(1-methyl-1H-pyrazol-4-yl)piperazin-1-yl)-4-oxo-4H-pyrido[1,2-a]pyrimidin-9-yl)ethyl)amino)benzoic acid] |
| 1.29 | > 10 | Cc1cc([C@@H](C)Nc2ccccc2C(=O)O)c2nc(N3CCN(C(=O)c4ccccc4)CC3)c(C#N)c(=O)n2c1 [Example 11-263, (R)-2-((1-(2-(4-benzoylpiperazin-1-yl)-3-cyano-7-methyl-4-oxo-4H-pyrido[1,2-a]pyrimidin-9-yl)ethyl)amino)benzoic acid] |
| > 10 | > 10 | Cc1cc(C(=O)N2CCCC2C(=O)O)c2nc(N3CCCCC3)cc(=O)n2c1 (stereo not drawn) [Example 11-345, (7-methyl-4-oxo-2-(piperidin-1-yl)-4H-pyrido[1,2-a]pyrimidin-9-carbonyl)proline] |
| > 10 | > 10 | Cc1cc(C(C)Nc2ccccc2C(=O)O)c2nc(N3CCC3)cc(=O)n2c1 (stereo not drawn) [Example 11-407, 2-((1-(2-(azetidin-1-yl)-7-methyl-4-oxo-4H-pyrido[1,2-a]pyrimidin-9-yl)ethyl)amino)benzoic acid] |
| > 10 | > 10 | Cc1cc(C(C)Nc2ccccc2C(=O)O)c2nc(N(C)C)cc(=O)n2c1 (stereo not drawn) [Example 11-408, 2-((1-(2-(dimethylamino)-7-methyl-4-oxo-4H-pyrido[1,2-a]pyrimidin-9-yl)ethyl)amino)benzoic acid] |
| > 10 | > 10 | Cc1cc(N2CCC(C(=O)O)CC2)c2nc(N3CCCCC3)cc(=O)n2c1 [Example 11-347, 1-(7-methyl-4-oxo-2-(piperidin-1-yl)-4H-pyrido[1,2-a]pyrimidin-9-yl)piperidine-4-carboxylic acid] |
